Measured values as given in patent publication US7531623B2, “Hydrochloride salts of a glycopeptide phosphonate derivative” (Theravance, Inc., priority 2003, dated 2009).

Assay: Stability of hydrochloride salts of telavancin on storage (HPLC area % of pseudoaglycone and aglycone impurities)
Assay type: physicochemical
Settings: for Aglycone of Cmpd 1 (HPLC area %) Initial / Pseudoaglycone of Cmpd 1 (HPLC area %) Initial: before storage at 25° C.; for Aglycone of Cmpd 1 (HPLC area %) 2 Week / Pseudoaglycone of Cmpd 1 (HPLC area %) 2 Week: stored at 25° C. for 2 weeks, glass vials; for Aglycone of Cmpd 1 (HPLC area %) 2-Week Change / Pseudoaglycone of Cmpd 1 (HPLC area %) 2-Week Change: stored at 25° C., difference between 2-week and initial value
Description: In the examples described below, HPLC sample analysis was conducted using an Agilent (Palo Alto, Calif.) Series 1100 instrument with Zorbax RP-Bonus 4.6 mm×250 mm columns, supplied by Agilent, having a 5 micron pore size, packed on C14 silica. Detection was by UV absorbance at 254 nm. Mobile phase A was 2%-98%-0.1% ACN-H2O-TFA; and mobile phase B was 90%-10%-0.1% ACN-H2O-TFA. A flow rate of 1.0 mL/min was used with moble phase A containing a gradient of mobile phase B as follows: 10 to 43% B for 30 min;, 43% B for 5 min; 43 to 100% B for 5 min; 100 to 10% B for 1 min; and 10% B for 14 min.
The effect of chloride ion content on the stability of hydrochloride salts of telavancin stored at −20° C., 5° C. and 25° C. was determined.
Eight lots of telavancin hydrochloride salts prepared as described in Example 2 were placed in identical glass vials and stored at −20° C., 5° C. and 25° C. under otherwise identical conditions for two weeks. The changes in HPLC area % for the pseudoaglycone and aglycone impurities were used to evaluate relative stability.
For each sample, the pH of the mixture from which it was isolated, is indicated. The column entitled, “2 Week Change” is the difference in HPLC area % between the value observed after two weeks and the initial value and is graphically illustrated in FIGS. 1 and 2.

Row | SMILES | Aglycone of Cmpd 1 (HPLC area %) Initial | Pseudoaglycone of Cmpd 1 (HPLC area %) Initial | Aglycone of Cmpd 1 (HPLC area %) 2 Week | Pseudoaglycone of Cmpd 1 (HPLC area %) 2 Week | Aglycone of Cmpd 1 (HPLC area %) 2-Week Change | Pseudoaglycone of Cmpd 1 (HPLC area %) 2-Week Change
1 | CCCCCCCCCCNCCN[C@@]1(C)C[C@H](O[C@H]2[C@H](Oc3c4cc5cc3Oc3ccc(cc3Cl)[C@@H](O)[C@@H](NC(=O)[C@@H](CC(C)C)NC)C(=O)N[C@@H](CC(N)=O)C(=O)N[C@H]5C(=O)N[C@H]3C(=O)N[C@H](C(=O)N[C@H](C(=O)O)c5cc(O)c(CNCP(=O)(O)O)c(O)c5-c5cc3ccc5O)[C@H](O)c3ccc(c(Cl)c3)O4)O[C@H](CO)[C@@H](O)[C@@H]2O)O[C@@H](C)[C@H]1O [5.60, telavancin] | 0.15 HPLC area % | 0.48 HPLC area % | 0.41 HPLC area % | 1.11 HPLC area % |  | 
2 | CCCCCCCCCCNCCN[C@@]1(C)C[C@H](O[C@H]2[C@H](Oc3c4cc5cc3Oc3ccc(cc3Cl)[C@@H](O)[C@@H](NC(=O)[C@@H](CC(C)C)NC)C(=O)N[C@@H](CC(N)=O)C(=O)N[C@H]5C(=O)N[C@H]3C(=O)N[C@H](C(=O)N[C@H](C(=O)O)c5cc(O)c(CNCP(=O)(O)O)c(O)c5-c5cc3ccc5O)[C@H](O)c3ccc(c(Cl)c3)O4)O[C@H](CO)[C@@H](O)[C@@H]2O)O[C@@H](C)[C@H]1O [3.68, telavancin] | 0.06 HPLC area % | 0.43 HPLC area % | 0.08 HPLC area % | 0.51 HPLC area % | +0.02 HPLC area % | +0.08 HPLC area %
3 | CCCCCCCCCCNCCN[C@@]1(C)C[C@H](O[C@H]2[C@H](Oc3c4cc5cc3Oc3ccc(cc3Cl)[C@@H](O)[C@@H](NC(=O)[C@@H](CC(C)C)NC)C(=O)N[C@@H](CC(N)=O)C(=O)N[C@H]5C(=O)N[C@H]3C(=O)N[C@H](C(=O)N[C@H](C(=O)O)c5cc(O)c(CNCP(=O)(O)O)c(O)c5-c5cc3ccc5O)[C@H](O)c3ccc(c(Cl)c3)O4)O[C@H](CO)[C@@H](O)[C@@H]2O)O[C@@H](C)[C@H]1O [5.74, telavancin] | 0.43 HPLC area % | 0.89 HPLC area % | 1.08 HPLC area % | 1.94 HPLC area % |  | 
4 | CCCCCCCCCCNCCN[C@@]1(C)C[C@H](O[C@H]2[C@H](Oc3c4cc5cc3Oc3ccc(cc3Cl)[C@@H](O)[C@@H](NC(=O)[C@@H](CC(C)C)NC)C(=O)N[C@@H](CC(N)=O)C(=O)N[C@H]5C(=O)N[C@H]3C(=O)N[C@H](C(=O)N[C@H](C(=O)O)c5cc(O)c(CNCP(=O)(O)O)c(O)c5-c5cc3ccc5O)[C@H](O)c3ccc(c(Cl)c3)O4)O[C@H](CO)[C@@H](O)[C@@H]2O)O[C@@H](C)[C@H]1O [4.41, telavancin] | 0.06 HPLC area % | 0.42 HPLC area % |  | 0.53 HPLC area % |  | +0.11 HPLC area %
5 | CCCCCCCCCCNCCN[C@@]1(C)C[C@H](O[C@H]2[C@H](Oc3c4cc5cc3Oc3ccc(cc3Cl)[C@@H](O)[C@@H](NC(=O)[C@@H](CC(C)C)NC)C(=O)N[C@@H](CC(N)=O)C(=O)N[C@H]5C(=O)N[C@H]3C(=O)N[C@H](C(=O)N[C@H](C(=O)O)c5cc(O)c(CNCP(=O)(O)O)c(O)c5-c5cc3ccc5O)[C@H](O)c3ccc(c(Cl)c3)O4)O[C@H](CO)[C@@H](O)[C@@H]2O)O[C@@H](C)[C@H]1O [3.94, telavancin] | 0.04 HPLC area % | 0.43 HPLC area % | 0.09 HPLC area % | 0.56 HPLC area % | +0.05 HPLC area % | +0.13 HPLC area %
6 | CCCCCCCCCCNCCN[C@@]1(C)C[C@H](O[C@H]2[C@H](Oc3c4cc5cc3Oc3ccc(cc3Cl)[C@@H](O)[C@@H](NC(=O)[C@@H](CC(C)C)NC)C(=O)N[C@@H](CC(N)=O)C(=O)N[C@H]5C(=O)N[C@H]3C(=O)N[C@H](C(=O)N[C@H](C(=O)O)c5cc(O)c(CNCP(=O)(O)O)c(O)c5-c5cc3ccc5O)[C@H](O)c3ccc(c(Cl)c3)O4)O[C@H](CO)[C@@H](O)[C@@H]2O)O[C@@H](C)[C@H]1O [4.69, telavancin] | 0.07 HPLC area % | 0.45 HPLC area % | 0.13 HPLC area % | 0.62 HPLC area % | +0.06 HPLC area % | +0.17 HPLC area %
7 | CCCCCCCCCCNCCN[C@@]1(C)C[C@H](O[C@H]2[C@H](Oc3c4cc5cc3Oc3ccc(cc3Cl)[C@@H](O)[C@@H](NC(=O)[C@@H](CC(C)C)NC)C(=O)N[C@@H](CC(N)=O)C(=O)N[C@H]5C(=O)N[C@H]3C(=O)N[C@H](C(=O)N[C@H](C(=O)O)c5cc(O)c(CNCP(=O)(O)O)c(O)c5-c5cc3ccc5O)[C@H](O)c3ccc(c(Cl)c3)O4)O[C@H](CO)[C@@H](O)[C@@H]2O)O[C@@H](C)[C@H]1O [4.59, telavancin] | 0.10 HPLC area % | 0.52 HPLC area % | 0.17 HPLC area % | 0.72 HPLC area % | +0.07 HPLC area % | +0.20 HPLC area %
8 | CCCCCCCCCCNCCN[C@@]1(C)C[C@H](O[C@H]2[C@H](Oc3c4cc5cc3Oc3ccc(cc3Cl)[C@@H](O)[C@@H](NC(=O)[C@@H](CC(C)C)NC)C(=O)N[C@@H](CC(N)=O)C(=O)N[C@H]5C(=O)N[C@H]3C(=O)N[C@H](C(=O)N[C@H](C(=O)O)c5cc(O)c(CNCP(=O)(O)O)c(O)c5-c5cc3ccc5O)[C@H](O)c3ccc(c(Cl)c3)O4)O[C@H](CO)[C@@H](O)[C@@H]2O)O[C@@H](C)[C@H]1O [2.42, telavancin] | 0.03 HPLC area % | 0.32 HPLC area % | 0.05 HPLC area % | 0.40 HPLC area % | +0.02 HPLC area % | +0.08 HPLC area %
